Reference: ChEMBL document CHEMBL1201862, “PubChem BioAssay data set” (2004)
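Growth conditions: 96-well plates. Treatment: test compound, 48 hours, 5 concentrations. Analysis: linear interpolation between bracketing concentrations; unreached endpoints set to highest concentration. GI50: concentration for 50% inhibition of growth.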 Activity calls are given as the source filed them. Rule as the data show it: active = GI50 up to about 1.1 µM and inactive = higher.

How the values were obtained:
Experiment in all cases: NCI anticancer screen, dose series, 48 h
786-0 = system: 786-0
A498 = system: A498
A549 = system: A549
ACHN = system: ACHN
CAKI-1 = system: CAKI-1
CCRF-CEM = system: CCRF-CEM
COLO 205 = system: COLO 205
DU-145 = system: DU-145
EKVX = system: EKVX
HCC 2998 = system: HCC 2998
HCT-15 = system: HCT-15
HL-60 = system: HL-60
HOP-62 = system: HOP-62
HOP-92 = system: HOP-92
HT-29 = system: HT-29
Hs-578T = system: Hs-578T
IGROV-1 = system: IGROV-1
K562 = system: K562
KM12 = system: KM12
LOX IMVI = system: LOX IMVI
M14 = system: M14
MCF7 = system: MCF7
MDA-MB-231 = system: MDA-MB-231
MDA-MB-435 = system: MDA-MB-435
MDA-N = system: MDA-N
MOLT-4 = system: MOLT-4
Malme-3M = system: Malme-3M
NCI-H23 = system: NCI-H23
NCI-H460 = system: NCI-H460
NCI-H522 = system: NCI-H522
NCI/ADR-RES = system: NCI/ADR-RES
OVCAR-3 = system: OVCAR-3
OVCAR-4 = system: OVCAR-4
OVCAR-5 = system: OVCAR-5
OVCAR-8 = system: OVCAR-8
PC-3 = system: PC-3
RPMI-8226 = system: RPMI-8226
RXF 393 = system: RXF 393
SF-268 = system: SF-268
SF-295 = system: SF-295
SF-539 = system: SF-539
SK-MEL-28 = system: SK-MEL-28
SK-MEL-2 = system: SK-MEL-2
SK-MEL-5 = system: SK-MEL-5
SK-OV-3 = system: SK-OV-3
SN12C = system: SN12C
SNB-19 = system: SNB-19
SNB-75 = system: SNB-75
SR = system: SR
SW-620 = system: SW-620
T47D = system: T47D
TK-10 = system: TK-10
U-251 = system: U-251
UACC-257 = system: UACC-257
UACC-62 = system: UACC-62
UO-31 = system: UO-31

## CC1=C2C(=O)c3ccccc3C(=O)[C@H]2C[C@@H](N2CCCC2=O)O1
786-0
  GI50: 25.2 µM (inactive)
A498
  GI50: 54.8 µM (inactive)
A549
  GI50: 43.1 µM (inactive)
ACHN
  GI50: 90.6 µM (inactive)
CAKI-1
  GI50: 77.3 µM (inactive)
CCRF-CEM
  GI50: 32.4 µM (inactive)
COLO 205
  GI50: 79.1 µM (inactive)
DU-145
  GI50: 26.9 µM (inactive)
EKVX
  GI50: 76.4 µM (inactive)
HCC 2998
  GI50: > 100 µM (inactive)
HCT-15
  GI50: 49.2 µM
HL-60
  GI50: 40.8 µM (inactive)
HOP-62
  GI50: 39.6 µM (inactive)
HOP-92
  GI50: 21.9 µM (inactive)
HT-29
  GI50: 41.6 µM (inactive)
Hs-578T
  GI50: 94.8 µM (inactive)
IGROV-1
  GI50: 80.9 µM (inactive)
K562
  GI50: 49.8 µM (inactive)
KM12
  GI50: 77.6 µM (inactive)
LOX IMVI
  GI50: 20.2 µM (inactive)
M14
  GI50: 14.7 µM (inactive)
MCF7
  GI50: 12.9 µM (inactive)
MDA-MB-231
  GI50: 39.6 µM (inactive)
MDA-MB-435
  GI50: 18.5 µM (inactive)
MDA-N
  GI50: 16.4 µM (inactive)
MOLT-4
  GI50: 32.1 µM (inactive)
Malme-3M
  GI50: 17.4 µM (inactive)
NCI-H23
  GI50: 21.9 µM (inactive)
NCI-H460
  GI50: 61.1 µM (inactive)
NCI-H522
  GI50: 79.8 µM (inactive)
NCI/ADR-RES
  GI50: 28.4 µM (inactive)
OVCAR-3
  GI50: 26.5 µM (inactive)
OVCAR-4
  GI50: 20.2 µM (inactive)
OVCAR-5
  GI50: 19.4 µM (inactive)
OVCAR-8
  GI50: 50.9 µM (inactive)
PC-3
  GI50: > 100 µM (inactive)
RPMI-8226
  GI50: 21.7 µM (inactive)
RXF 393
  GI50: 23.7 µM (inactive)
SF-268
  GI50: 48.1 µM (inactive)
SF-295
  GI50: 66.8 µM (inactive)
SF-539
  GI50: 25.5 µM (inactive)
SK-MEL-28
  GI50: 54.7 µM (inactive)
SK-MEL-2
  GI50: > 100 µM (inactive)
SK-MEL-5
  GI50: 17.1 µM (inactive)
SK-OV-3
  GI50: > 100 µM (inactive)
SN12C
  GI50: 53.2 µM (inactive)
SNB-19
  GI50: > 100 µM (inactive)
SNB-75
  GI50: 15.3 µM (inactive)
SR
  GI50: 32.2 µM (inactive)
SW-620
  GI50: 23.8 µM (inactive)
T47D
  GI50: 22.8 µM (inactive)
TK-10
  GI50: 70.3 µM (inactive)
U-251
  GI50: 28 µM (inactive)
UACC-257
  GI50: 65.6 µM (inactive)
UACC-62
  GI50: 33 µM (inactive)
UO-31
  GI50: > 100 µM (inactive)
